Assay results published in US11807650B2, “NMDA receptor modulators and uses thereof” (Novartis AG, priority 2016, dated 2023).

Target: T1, human GRIN1 (transcript variant NR1-3) and GRIN2D expressed in Xenopus oocytes (Homo sapiens, UniProt O15399)
T1 construct: GenScript (GRIN2D synthesis) SC115601; host or cells: Xenopus oocytes injected with cRNA (1 GluN1 : 2 GluN2)
Assay: NR2D oocyte potentiation assay (two-electrode voltage clamp)
Format: cell-based
Conditions: 10 uM test compound; glutamate and glycine 10 μM each; holding potential −40 mV
Method in brief: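 Xenopus oocytes were defolliculated with collagenase, then injected with 50 nL of cRNA encoding human GluN1 (NR1-3 variant) and GluN2D mixed 1:2 and kept 72 h at 16° C. Two-electrode voltage clamp at −40 mV recorded currents; after 10 μM glutamate plus 10 μM glycine reached plateau, test compound was added until a new plateau formed.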

T1 sequence (O15399 28-1336, other chains not shown): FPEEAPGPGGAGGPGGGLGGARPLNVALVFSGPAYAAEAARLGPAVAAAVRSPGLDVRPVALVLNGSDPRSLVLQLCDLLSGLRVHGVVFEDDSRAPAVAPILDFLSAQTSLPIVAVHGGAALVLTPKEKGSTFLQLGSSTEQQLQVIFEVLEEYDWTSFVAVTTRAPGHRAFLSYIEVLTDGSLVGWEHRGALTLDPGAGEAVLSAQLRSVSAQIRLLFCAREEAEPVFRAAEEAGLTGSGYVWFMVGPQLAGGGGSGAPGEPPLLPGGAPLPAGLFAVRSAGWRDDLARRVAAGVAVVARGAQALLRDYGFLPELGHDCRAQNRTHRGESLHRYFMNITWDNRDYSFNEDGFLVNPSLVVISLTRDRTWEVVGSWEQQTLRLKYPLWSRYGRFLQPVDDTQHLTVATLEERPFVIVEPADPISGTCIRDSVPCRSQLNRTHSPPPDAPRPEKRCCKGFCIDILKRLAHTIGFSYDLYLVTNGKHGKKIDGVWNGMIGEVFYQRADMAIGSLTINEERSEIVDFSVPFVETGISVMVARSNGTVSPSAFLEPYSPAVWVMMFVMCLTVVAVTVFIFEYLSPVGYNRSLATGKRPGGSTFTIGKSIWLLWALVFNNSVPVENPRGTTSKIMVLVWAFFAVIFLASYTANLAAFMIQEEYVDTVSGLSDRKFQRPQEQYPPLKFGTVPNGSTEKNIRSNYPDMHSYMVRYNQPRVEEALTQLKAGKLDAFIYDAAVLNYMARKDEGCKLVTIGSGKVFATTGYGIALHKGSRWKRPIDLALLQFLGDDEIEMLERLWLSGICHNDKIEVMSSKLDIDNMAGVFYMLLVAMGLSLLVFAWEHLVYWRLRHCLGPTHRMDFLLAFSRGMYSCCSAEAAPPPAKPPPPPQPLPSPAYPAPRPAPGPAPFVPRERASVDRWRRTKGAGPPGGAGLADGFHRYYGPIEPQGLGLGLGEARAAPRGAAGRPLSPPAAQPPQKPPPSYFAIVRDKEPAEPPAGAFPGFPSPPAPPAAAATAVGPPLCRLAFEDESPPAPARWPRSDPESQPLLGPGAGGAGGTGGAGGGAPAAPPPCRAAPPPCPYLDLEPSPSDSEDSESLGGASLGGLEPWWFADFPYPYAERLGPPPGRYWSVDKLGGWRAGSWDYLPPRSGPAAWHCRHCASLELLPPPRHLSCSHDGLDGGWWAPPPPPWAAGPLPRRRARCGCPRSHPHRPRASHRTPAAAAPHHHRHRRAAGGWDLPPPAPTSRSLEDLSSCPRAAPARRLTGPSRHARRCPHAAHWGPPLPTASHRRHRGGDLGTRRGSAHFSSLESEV

Row | SMILES | activation at 10 µM [%] | NR2D Oocyte % Potentiation @ 10 uM
1 | N#Cc1c(-c2ccc(Br)nc2)nc2n(c1=O)CCCS2 [Example 57, 8-(6-bromopyridin-3-yl)-6-oxo-3,4-dihydro-2H,6H-pyrimido[2,1-b][1,3]thiazine-7-carbonitrile] | 10 to 100 | 
2 | C[C@@H]1CSc2nc(-c3cnc(C(C)(C)C)c(F)c3)c(C#N)c(=O)n2C1 [Example 99, (S)-8-(6-(tert-butyl)-5-fluoropyridin-3-yl)-3-methyl-6-oxo-3,4-dihydro-2H,6H-pyrimido[2,1-b][1,3]thiazine-7-carbonitrile] | > 1000 | 
3 | N#Cc1c(-c2ccc(C3(C(F)(F)F)CC3)cc2)nc2n(c1=O)CCCS2 [Example 47, 6-oxo-8-(4-(1-(trifluoromethyl)cyclopropyl)phenyl)-3,4-dihydro-2H,6H-pyrimido[2,1-b][1,3]thiazine-7-carbonitrile] | 500 to 1000 | 
4 | CC1CSc2nc(-c3ccc(N4CC(C)(F)C4)nc3)c(C#N)c(=O)n2C1 (stereo not drawn) [Example 51, 8-(6-(3-fluoro-3-methylazetidin-1-yl)pyridin-3-yl)-3-methyl-6-oxo-3,4-dihydro-2H,6H-pyrimido[2,1-b][1,3]thiazine-7-carbonitrile] |  | Inhibitor
5 | CC(C)(C)c1ccc(-c2cc3n(c(=O)c2C#N)CCCS3)cc1 [Example 68, 8-(4-(tert-butyl)phenyl)-6-oxo-3,4-dihydro-2H,6H-pyrido[2,1-b][1,3]thiazine-7-carbonitrile] | > 1000 | 
6 | C[C@H]1CSc2nc(-c3cnc(C(C)(C)C)c(F)c3)c(C#N)c(=N)n2C1 [Example 112, (R)-8-(6-(tert-butyl)-5-fluoropyridin-3-yl)-6-imino-3-methyl-3,4-dihydro-2H,6H-pyrimido[2,1-b][1,3]thiazine-7-carbonitrile] | > 1000 | 
7 | C=Cc1c(-c2ccc(C(C)(C)C)nc2)nc2n(c1=O)CCCS2 [Example 33, 8-(6-tert-butylpyridin-3-yl)-7-ethenyl-2H, 3H,4H,6H-pyrimido [2,1-b][1,3] thiazin-6-one] | 10 to 100 | 
8 | CC(C)(C)c1ccc(-c2nc3n(c(=O)c2C#N)C[C@H](CO)CS3)cn1 [Example 130, (R)-8-(6-(tert-butyl)pyridin-3-yl)-3-(hydroxymethyl)-6-oxo-3,4-dihydro-2H,6H-pyrimido[2,1-b][1,3]thiazine-7-carbonitrile] | 100 to 500 | 
9 | CC1CSc2nc(-c3ccc(C(C)(C)O)nc3)c(C#N)c(=O)n2C1 (stereo not drawn) [Example 85, 8-(6-(2-hydroxypropan-2-yl)pyridin-3-yl)-3-methyl-6-oxo-3,4-dihydro-2H,6H-pyrimido[2,1-b][1,3]thiazine-7-carbonitrile] | 10 to 100 | 
10 | COc1cc(C(C)(C)C)ccc1-c1nc2n(c(=O)c1C#N)CCCS2 [Example 193, 8-(4-tert-butyl-2-methoxyphenyl)-6-oxo-2H,3H,4H,6H-pyrimido[2,1-b][1,3]thiazine-7-carbonitrile] | 100 to 500 | 
11 | CC1CSc2cc(-c3ccc(C(C)(C)C)nc3)c(C#N)c(=O)n2C1 (stereo not drawn) [Example 69, 8-(6-(tert-butyl)pyridin-3-yl)-3-methyl-6-oxo-3,4-dihydro-2H,6H-pyrido[2,1-b][1,3]thiazine-7-carbonitrile] | > 1000 | 
12 | CC1CSc2nc(-c3ccc(N4CC(C)(C)C4)nc3)c(C#N)c(=O)n2C1 (stereo not drawn) [Example 52, 8-(6-(3,3-dimethylazetidin-1-yl)pyridin-3-yl)-3-methyl-6-oxo-3,4-dihydro-2H,6H-pyrimido[2,1-b][1,3]thiazine-7-carbonitrile] |  | Inhibitor
13 | C[C@H]1CSc2cc(-c3cnc(C(C)(C)C)nc3)c(C#N)c(=O)n2C1 [Example 104, (R)-8-(2-(tert-butyl)pyrimidin-5-yl)-3-methyl-6-oxo-3,4-dihydro-2H,6H-pyrido[2,1-b][1,3]thiazine-7-carbonitrile] | > 1000 | 
14 | COCSCC1COc2nc(-c3cnc(C(C)(C)C)c(F)c3)c(C#N)c(=O)n2C1 (stereo not drawn) [Example 165, 8-(6-tert-butyl-5-fluoropyridin-3-yl)-3-{[(methoxymethyl)sulfanyl]methyl}-6-oxo-2H,3H, 4H,6H-pyrimido [2,1-b][1,3] oxazine-7-carbonitrile] | > 1000 | 
15 | C[C@H]1CSc2nc(-c3cnc(C(C)(C)C)c(F)c3)c(C#N)c(=O)n2C1 [Example 98, (R)-8-(6-(tert-butyl)-5-fluoropyridin-3-yl)-3-methyl-6-oxo-3,4-dihydro-2H,6H-pyrimido[2,1-b][1,3]thiazine-7-carbonitrile] | > 1000 | 
16 | CC(C)(C)c1ncc(-c2nc3n(c(=O)c2C#N)CC(C(=O)N2CCOCC2)CS3)cc1F (stereo not drawn) [Example 162, 8-(6-(tert-butvl)-5-fluoropyndin-3-yl)-3-(morpholine-4-carbonyl)-6-oxo-3,4-dihydro-2H,6H-pyrimido[2,1-b][1,3]thiazine-7-carbonitrile] | 100 to 500 | 
17 | CSCC1COc2nc(-c3cnc(C(C)(C)C)c(F)c3)c(C#N)c(=O)n2C1 (stereo not drawn) [Example 164, 8-(6-(tert-butyl)-5-fluoropyridin-3-yl)-3-((methylthio)methyl)-6-oxo-3,4-dihydro-2H,6H-pyrimido[2,1-b][1,3]oxazine-7-carbonitrile] | 10 to 100 | 

Row | SMILES | activation at 10 µM [%] | NR2D Oocyte % Potentiation @ 10 uM
18 | C=C1CSc2nc(-c3ccc(C(C)(C)C)nc3)c(C#N)c(=O)n2C1 [Example 114, 8-(6-(tert-butyl)pyridin-3-yl)-3-methylene-6-oxo-3,4-dihydro-2H,6H-pyrimido[2,1-b][1,3]thiazine-7-carbonitrile] | > 1000 | 
19 | CC1CSc2nc(-c3cnc(C(C)(C)C)c(Br)c3)c(C#N)c(=O)n2C1 (stereo not drawn) [Example 58, 8-(5-bromo-6-(tert-butyl)pyridin-3-yl)-3-methyl-6-oxo-3,4-dihydro-2H,6H-pyrimido[2,1-b][1,3]thiazine-7-carbonitrile] | > 1000 | 
20 | CC(C)(C)c1ccc(-c2nc3n(c(=O)c2Br)CCCS3)cn1 [Example 30, 7-bromo-8-(6-(tert-butyl)pyridin-3-yl)-3,4-dihydro-2H,6H-pyrimido[2,1-b][1,3]thiazin-6-one] | 100 to 500 | 
21 | CSc1cc(-c2nc3n(c(=O)c2C#N)CCCS3)cnc1C(C)(C)C [Example 62, 8-(6-(tert-butyl)-5-(methylthio)pyridin-3-yl)-6-oxo-3,4-dihydro-2H,6H-pyrimido[2,1-b][1,3]thiazine-7-carbonitrile] | > 1000 | 
22 | CC(C)(C)c1ccc(-c2nc3n(c(=O)c2C#N)CC=CCS3)cn1 [Example 2, 2-(6-(tert-butyl)pyridin-3-yl)-4-oxo-6,9-dihydro-4H-pyrimido[2,1-b][1,3]thiazepine-3-carbonitrile] | 10 to 100 | 
23 | CC(C)(C)c1ccc(-c2nc3n(c(=O)c2C#N)C[C@@H](CO)CS3)cn1 [Example 129, (S)-8-(6-(tert-butyl)pyridin-3-yl)-3-(hydroxymethyl)-6-oxo-3,4-dihydro-2H,6H-pyrimido[2,1-b][1,3]thiazine-7-carbonitrile] | > 1000 | 
24 | CC1CSc2cc(-c3cnc(C(C)(C)C)c(F)c3)c(C#N)c(=O)n2C1 (stereo not drawn) [Example 103, 8-(6-(tert-butyl)-5-fluoropyridin-3-yl)-3-methyl-6-oxo-3,4-dihydro-2H,6H-pyrido[2,1-b][1,3]thiazine-7-carbonitrile] | > 1000 | 
25 | CC1(F)CN(c2ccc(-c3nc4n(c(=O)c3C#N)CCCS4)cn2)C1 [Example 53, 8-(6-(3-fluoro-3-methylazetidin-1-yl)pyridin-3-yl)-6-oxo-3,4-dihydro-2H,6H-pyrimido[2,1-b][1,3]thiazine-7-carbonitrile] |  | Inhibitor
26 | CC1CCc2nc(-c3ccc(C(C)(C)C)nc3)c(C#N)c(=O)n2C1 (stereo not drawn) [Example 34, 2-(6-(tert-butyl)pyridin-3-yl)-7-methyl-4-oxo-6,7,8,9-tetrahydro-4H-pyrido[1,2-a]pyrimidine-3-carbonitrile] | 10 to 100 | 
27 | CC1CCn2c(nc(-c3ccc(C(C)(C)C)nc3)c(C#N)c2=O)S1 (stereo not drawn) [Example 93, 8-(6-(tert-butyl)pyridin-3-yl)-2-methyl-6-oxo-3,4-dihydro-2H,6H-pyrimido[2,1-b][1,3]thiazine-7-carbonitrile] | 500 to 1000 | 
28 | CC(C)(C)c1ncc(-c2nc3n(c(=O)c2C#N)CCCS3)cc1F [Example 75, 8-(6-(tert-butyl)-5-fluoropyridin-3-yl)-6-oxo-3,4-dihydro-2H,6H-pyrimido[2,1-b][1,3]thiazine-7-carbonitrile] | > 1000 | 
29 | CC(C)(C)c1ccc(-c2nc3n(c(=O)c2Br)CCCC3)cc1 [Example 13, 3-bromo-2-(4-(tert-butyl)phenyl)-6,7,8,9-tetrahydro-4H-pyrido[1,2-a]pyrimidin-4-one] | < 10 | 
30 | CC(=O)NC[C@H]1CSc2nc(-c3cnc(C(C)(C)C)c(F)c3)c(C#N)c(=O)n2C1 [Example 168, (R)-N-((8-(6-(tert-butyl)-5-fluoropyridin-3-yl)-7-cyano-6-oxo-3,4-dihydro-2H,6H-pyrimido[2,1-b][1,3]thiazin-3-yl)methyl)acetamide] | 500 to 1000 | 
31 | C[C@@H]1CSc2nc(-c3ccc(C(C)(C)N(C)C)nc3)c(C#N)c(=O)n2C1 [Example 134, (S)-8-(6-(2-(dimethylamino)propan-2-yl)pyridin-3-yl)-3-methyl-6-oxo-3,4-dihydro-2H,6H-pyrimido[2,1-b][1,3]thiazine-7-carbonitrile] | < 10 | 
32 | CC1CSc2nc(-c3ccc(C(C)(C)C#N)nc3)c(C#N)c(=O)n2C1 (stereo not drawn) [Example 79, 8-[6-(1-cyano-1-methylethyl)pyridin-3-yl]-3-methyl-6-oxo-2H,3H,4H,6H-pyrimido[2,1-b] [1,3]thiazine-7-carbonitrile] | 100 to 500 | 
33 | C[C@@H]1CSc2cc(-c3ccc(C4(C)CC4)nc3)c(C#N)c(=O)n2C1 [Example 118, (S)-3-methyl-8-(6-(1-methylcyclopropyl)pyridin-3-yl)-6-oxo-3,4-dihydro-2H,6H-pyrido[2,1-b][1,3]thiazine-7-carbonitrile] | > 1000 | 
